Test results as given in patent US20160074462A1, “Method of Treating HCV” (priority 2014, published 2016).

Settings: human, in vivo
Excerpt: Food effect on the drug exposure (e.g., AUC) of Compound 1/r, Compound 2 and Compound 3 was not known. Food effect on the drug exposure of these compounds was also not considered predictable.
The increase in exposure was similar regardless of meal type (e.g., high-fat vs. moderate-fat) or calorie content (500-600 kcal vs. 1000 kcal). Therefore, the combination of Compound 1/r, Compound 2 and Compound 3, the combination of Compound 1/r and Compound 3, as well as the combination of Compound 1/r and Compound 2, can be taken with food without regard to the specific fat or calorie content.

Cc1cnc(C(=O)N[C@H]2CCCCC/C=C\[C@@H]3C[C@@]3(C(=O)NS(=O)(=O)C3CC3)NC(=O)[C@@H]3C[C@@H](Oc4nc5ccccc5c5ccccc45)CN3C2=O)cn1 [Compound 1, (2R,6S,13aS,14aR,16aS,Z)-N-(cyclopropylsulfonyl)-6-(5-methylpyrazine-2-carboxamido)-5,16-dioxo-2-(phenanthridin-6-yloxy)-1,2,3,5,6,7,8,9,10,11,13a,14,14a,15,16,16a-hexadecahydrocyclopropa[e]pyrrolo[1,2-a][1,4]diazacyclop entadecine-14a-carboxamide]
increase of exposure (AUC) by food: ≤ 367%

COc1c(-c2ccc3cc(NS(C)(=O)=O)ccc3c2)cc(-n2ccc(=O)[nH]c2=O)cc1C(C)(C)C [Compound 2, N-(6-(3-tert-butyl-5-(2,4-dioxo-3,4-dihydropyrimidin-1(2H)-yl)-2-methoxyphenyl)naphthalen-2-yl)methanesulfonamide]
increase of exposure (AUC) by food: ≤ 53%

COC(=O)N[C@H](C(=O)N1CCCC1C(=O)Nc1ccc(C2CC[C@@H](c3ccc(NC(=O)[C@@H]4CCCN4C(=O)[C@@H](NC(=O)OC)C(C)C)cc3)N2c2ccc(C(C)(C)C)cc2)cc1)C(C)C (stereo partly shown) [Compound 3]
increase of exposure (AUC) by food: up to 127%

CC(C)c1nc(CN(C)C(=O)N[C@H](C(=O)N[C@@H](Cc2ccccc2)C[C@H](O)[C@H](Cc2ccccc2)NC(=O)OCc2cncs2)C(C)C)cs1 [ritonavir, reference compound]
increase of exposure (AUC) by food: ≤ 63%
